Reference: US7175991B2, “Method of measuring binding site on plasma protein of plasma protein-binding drug and method of measuring plasma protein mutation” (Nihon Medi-Physics Co., Ltd., priority 2002, dated 2007)
Like-named read-outs stand apart in the source and are kept apart here.

What was measured:
HSA Site II = HSA Site II (Homo sapiens, UniProt P02768); settings: for Change ratio (time) of ^14C-DZP free drug ratio / Free drug ratio (%) of ^14C-DZP: human, 400 μM, pH 7.4
AGP Site A and B [1] = settings: for Change ratio (time) of ^3H-PPL free drug ratio / Free drug ratio (%) of ^3H-PPL: human, 400 μM, pH 7.4
HSA Site II and AGP [2] = settings: human, 400 μM, pH 7.4
HSA Site I [3] = target: T1, HSA Site I (Homo sapiens, UniProt P02768); settings: 400 μM, pH 7.4
AGP Site A and B [4] = test: Four-nuclide simultaneous measurement, human serum 2 (AGP variant): displacement of ^3H-PPL
Source text: (§1) In addition, the possibility of monitoring the protein binding displacement effect of a drug in the serum was examined.

HSA Site II and AGP [5] = test: Four-nuclide simultaneous measurement, human serum 1: displacement of ^125I-IMP; settings: human serum 1, four nuclides
HSA Site II and AGP [6] = test: Table 6, two-nuclide simultaneous measure, human pooled serum: column headed ^125I-IMP; settings: physiological saline instead of displacement drug
HSA Site II and AGP [7] = test: Four-nuclide simultaneous measurement, human serum 2 (AGP variant): displacement of ^125I-IMP
Source text: as §1

HSA Site I [8] = target: T1, HSA Site I; test: Four-nuclide simultaneous measurement, human serum 2 (AGP variant): displacement of ^99mTcO4^-
Source text: as §1

HSA Site I [9] = target: T1, HSA Site I; settings: human serum 1; added drug 400 μM
HSA Site I [10] = target: T1, HSA Site I; test: Four-nuclide simultaneous measurement, human serum 1: displacement of ^99mTcO4^-; settings: human serum 1, four nuclides
plasma protein = settings: used in the concentration of a diagnostic agent; cited from earlier work
HSA Site I [11] = target: T1, HSA Site I; test: Table 6, two-nuclide simultaneous measure, human pooled serum: column headed ^99mTcO4^-; settings: physiological saline instead of displacement drug
[12] = physiological saline instead of displacement drug (Table 5)
[13] = physiological saline instead of drug (Table 4)
[14] = physiological saline control (Table 8)
[15] = physiological saline instead of drug (Table 7)

HSA Site II, sequence (P02768 25-609): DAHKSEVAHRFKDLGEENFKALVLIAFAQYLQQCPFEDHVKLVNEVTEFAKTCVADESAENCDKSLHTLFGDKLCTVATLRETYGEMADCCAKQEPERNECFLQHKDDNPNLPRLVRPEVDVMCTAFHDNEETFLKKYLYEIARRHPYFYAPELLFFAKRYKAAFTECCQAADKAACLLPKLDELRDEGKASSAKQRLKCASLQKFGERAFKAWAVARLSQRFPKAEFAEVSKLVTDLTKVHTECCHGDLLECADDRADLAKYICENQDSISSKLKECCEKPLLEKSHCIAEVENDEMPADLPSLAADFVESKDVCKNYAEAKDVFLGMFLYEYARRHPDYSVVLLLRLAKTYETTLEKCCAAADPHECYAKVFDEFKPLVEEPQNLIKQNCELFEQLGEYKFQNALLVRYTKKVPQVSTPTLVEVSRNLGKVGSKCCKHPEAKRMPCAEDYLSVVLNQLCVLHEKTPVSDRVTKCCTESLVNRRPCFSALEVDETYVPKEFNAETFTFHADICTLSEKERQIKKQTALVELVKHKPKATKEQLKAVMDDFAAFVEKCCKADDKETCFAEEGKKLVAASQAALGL
T1 sequence (P02768 25-609): as above

## CC(=O)N[C@@H](Cc1c[nH]c2ccccc12)C(=O)O [NAT, N-acetyltryptophan]
HSA Site II
  Effect on free drug with affinity to site II of HSA, in words: effective displacement drug
  Change ratio (time) of ^14C-DZP free drug ratio: 1.21 time
  Free drug ratio (%) of ^14C-DZP: 3.08%
AGP Site A and B [1]
  Effect on free drug with affinity to AGP, in words: effect to reduce the concentration to some extent
  Change ratio (time) of ^3H-PPL free drug ratio: 0.94 time
  Free drug ratio (%) of ^3H-PPL: 11.54%
HSA Site II and AGP [2]
  Change ratio (time) of ^125I-IMP free drug ratio: 1.01 time
  Free drug ratio (%) of ^125I-IMP: 34.19%
HSA Site I [3]
  Change ratio (time) of ^99mTcO4^- free drug ratio: 1.07 time
  Free drug ratio (%) of ^99mTcO4^-: 0.97%

## CC(C)Cc1ccc(C(C)C(=O)O)cc1 (stereo not shown) [IPF, ibuprofen]
AGP Site A and B [4]
  Effect on binding of ^3H-PPL, in words: increased

## CC(C)NC(C)Cc1ccc([125I])cc1 (stereo not shown) [^125I-IMP]
HSA Site II and AGP [5]; [12]
  Free drug ratio of control (%), ^125I-IMP: 23.40%
HSA Site II and AGP [5]; [13]
  Free drug ratio of control (%), ^125I-IMP: 23.40%
HSA Site II and AGP [6]
  Free drug ratio of control (%), ^125I-IMP: 33.98%
HSA Site II and AGP [7]; [14]
  Free drug ratio of control (%), ^125I-IMP: 27.23%
HSA Site II and AGP [7]; [15]
  Free drug ratio of control (%), ^125I-IMP: 27.23%

## CCCCC1C(=O)NC(=O)N(C2CCCCC2)C1=O (stereo not shown) [BCL, bucolome]
HSA Site I [8]
  Displacement effect on ^99mTcO4^-, in words: significant displacement effect
HSA Site I [9]
  Displacement effect on ^14C-WRF, in words: significant displacement effect
HSA Site I [10]
  Displacement effect on drug with affinity to site I of HSA (^99mTcO4^-), in words: significant displacement effect
AGP Site A and B [4]; human serum 2 (AGP variant)
  Effect on binding of ^3H-PPL, in words: increased
HSA Site II and AGP [7]
  Effect on binding of ^125I-IMP, in words: increased

## O=C([O-])CN=C([O-])CN=C([O-])CN=C([O-])C[S-].[O-2].[Tc+4] [^99mTc-MAG3, 99m-technetium labeled mercaptoacetylglycylglycylglycine]
Plasma protein
  Binding to plasma protein: about 90%

## CC[C@H]1OC(=O)[C@H](C)[C@@H](O[C@H]2C[C@@](C)(OC)[C@@H](O)[C@H](C)O2)[C@H](C)[C@@H](O[C@@H]2O[C@H](C)C[C@H](N(C)C)[C@H]2O)[C@](C)(O)C[C@@H](C)C(=O)[C@H](C)[C@@H](O)[C@]1(C)O [ETM, erythromycin]
HSA Site II
  Change ratio (time) of ^14C-DZP free drug ratio: 1.04 time
  Free drug ratio (%) of ^14C-DZP: 2.67%
AGP Site A and B [1]
  Effect on free drug with affinity to AGP, in words: effective displacement drug
  Change ratio (time) of ^3H-PPL free drug ratio: 1.93 time
  Free drug ratio (%) of ^3H-PPL: 23.79%
HSA Site II and AGP [2]
  Change ratio (time) of ^125I-IMP free drug ratio: 1.61 time
  Free drug ratio (%) of ^125I-IMP: 54.78%
HSA Site I [3]
  Change ratio (time) of ^99mTcO4^- free drug ratio: 0.99 time
  Free drug ratio (%) of ^99mTcO4^-: 0.88%

## [O]=[99Tc](=[O])(=[O])[O-] [^99 mTcO4^-, Pertechnetium acid]
HSA Site I [8]; [14]
  Free drug ratio of control (%), ^99mTcO4^-: 21.08%
HSA Site I [8]; [15]
  Free drug ratio of control (%), ^99mTcO4^-: 21.08%
HSA Site I [10]; [12]
  Free drug ratio of control (%), ^99mTcO4^-: 21.07%
HSA Site I [10]; [13]
  Free drug ratio of control (%), ^99mTcO4^-: 21.07%
HSA Site I [11]
  Free drug ratio of control (%), ^99mTcO4^-: 0.90%

## N[C@@H](Cc1c[nH]c2ccccc12)C(=O)O [Trp, tryptophan]
HSA Site II
  Change ratio (time) of ^14C-DZP free drug ratio: 2.25 time
AGP Site A and B [1]
  Change ratio (time) of ^3H-PPL free drug ratio: 1.01 time
HSA Site II and AGP [2]
  Change ratio (time) of ^125I-IMP free drug ratio: 0.94 time
HSA Site I [3]
  Change ratio (time) of ^99mTcO4^- free drug ratio: 1.08 time
